Laboratory results reported in patent publication US20150219624A1, “METHODS FOR IDENTIFYING ANTI-CANCER COMPOUNDS” (MEMORIAL SLOAN KETTERING CANCER CENTER, priority 2013, published 2015).
pIC50: −log10 of the molar value.

Legend:
[1] = test system: S6 phosphorylation and AKT (T308) phosphorylation; experiment: Immunoblots of S6 and AKT phosphorylation in KOPT-K1 cells; type: cell-based, human; details: 25 nM, 48 hours
Procedure: (§1) Immunoblots. Lysates were made using Laemli lysis buffer. 30 ug of protein was loaded onto SDS-PAGE gels then transferred onto Immobilon-FL Transfer Membranes (Millipore IPFL00010). The antibodies used were α-Tubulin (Sigma T5168), β-actin (Sigma A5316), Myc (Santa Cruz Biotechnology sc-40), p-Akt 308 (Cell Signaling 9275), Akt (Cell Signaling 9272), S6 (Cell Signaling 2317), and p-S6 (Cell Signaling 2215), Notch1 (Cell signaling 3608), Myb (Santa Cruz Biotechnology, sc-517), CDK6 (Cell Signaling 3136), EZH2 (Cell Signaling 5246), Mdm2 (Santa Cruz Biotechnology, sc-965), Bcl2 (Santa Cruz Biotechnology, sc-509), Run×1 (Cell Signaling 4336), and GAPDH (Cell Signaling 5174).
(§2) E) Simplified diagram of rapamycin and silvestrol mechanism of action.

murine T-ALL cells = experiment: Silvestrol effect on murine T-ALL cells with engineered genetic lesions; type: cell-based; details: cells expressing Akt, mutant IL7R, eIF4E or shRNA against Pten
PANC-1 = experiment: Silvestrol sensitivity and KRAS protein levels in PANC-1; type: cell-based
Description: KRAS has a long T1/2 compared to MYC, and therefore the effect is less pronounced. The in vitro activity of an S6 kinase inhibitor, rapamycin, silvestrol and combinations on PNAC1 and MiaPaca2 cells are shown in FIGS. 24B and 24C, respectively.

[2] = test system: cap-dependent translation; experiment: Dual-luciferase reporter assay (capped vs IRES-driven luciferase); type: cell-based; details: renilla and firefly luciferase either capped or under control of an IRES element
Procedure: Luciferase assays. Four tandem repeats of the (CGG)4 12-mer motif (GQs) or random sequence matched for length and GC content (random) were cloned into the 5′UTR of Renilla luciferase plasmid pGL4.73. Empty firefly luciferase plasmid pGL4.13 or HCV-IRES firefly were used as internal controls. Luciferase assays were performed using Dual-Luciferase Reporter Assay System (Promega E1960) following the manufacturer's instructions. GQs sequence: […]

KOPT-K1 xenografts = experiment: KOPT-K1 xenograft study; details: for tumor growth: d 0-6, systemic; for toxicity, death, weight loss: treated mice, therapeutic doses
Procedure: Statistical analysis. All Kaplan-Meier curves were analyzed using the Mantel-Cox test. The significance of xenografted tumor size differences was determined using two-way repeated measures ANOVA tests. RT-PCRs were analyzed with two tailed t-tests.
Xenografts. 5,000,000 KOPT-K1 cells in 30% matrigel (BD 354234) were injected subcutaneously into C.B-17 scid mice. […] Tumor size was measured daily by caliper. P-values were calculated using 2-way repeated measures ANOVA.
Cycloheximide (C7698) and Rapamycin (R8781) were purchased from Sigma.
D) KOPT-K1 xenograft studies.

[3] = test system: primary human T-ALL samples; experiment: Viability / apoptosis induction in primary human T-ALL samples; type: cell-based
Description: as §2

JURKAT and KOPT-K1 cells = experiment: Immunoblots of target proteins in human T-ALL lines; type: cell-based; details: 25 nM, immunoblot
Procedure: as §1
Given the complexity of the RF data analysis, it was important to directly confirm loss of expression for at least some of these proteins. Briefly, immunoblots on JURKAT and KOPT-K1 cells treated with silvestrol (25 nM) and loaded with equal amounts of total protein confirmed dramatic loss of MYC, NOTCH1, BCL2, and CCND3 proteins (FIG. 6A). The effect on MYC was especially striking, it was dose dependent (FIG. 6B), lasted for 48 h, and was also achieved in xenografts in vivo (Figure S6A-B). […] As expected, ACTIN, TUBULIN, and GAPDH were not affected (FIG. 6A). […] The small and significant increase in MYC mRNA levels might be consistent with prior reports of a MYC auto-regulatory mechanism (Penn et al., 1990a; Penn et al., 1990b) (FIG. 6C).
FIG. 6 depicts validation of selected silvestrol targets. A) Immunoblots of lysates from human T-ALL lines treated with silvestrol (25 nM) and probed as indicated. B) Immunoblots of lysates from JURKAT cells treated with escalating doses of silvestrol and probed as indicated. C) mRNA levels for the corresponding genes treated with vehicle (DMSO, black) or silvestrol (red, 25 nM); D) Volcano plot of mRNA expression changes of all TE Down and rDiff genes in T-ALL samples (n=9) compared to normal thymocytes (n=4). E) Kaplan-Meier analysis showing time to leukemia development (as in FIG. 1B). Wild-type HPCs transduced with NOTCH1-ICN and empty vector (black, n=14), Myb (red, n=4), Ccnd3 T283A (orange, n=5), or shEzh2 (orange, n=10), vavP-Bcl2 (brown, n=4), p53−/− (green, n=3). F) Effect of OmoMYCER activation on survival of leukemic animals; (d=0 represents start of therapy/tamoxifen (TAM) administration). Inset: clearance of GFP expressing murine T-ALL cells from the marrow upon OmomycER activation (Untr: untreated, TAM: tamoxifen). G) Competition experiment (as in FIG. 1C/D) showing the percentage of each starting GFP positive population of murine T-ALL cells partially transduced with the indicated constructs and treated with silvestrol (* indicates p<0.05).
FIG. 13 depicts the relative contribution of MYC and other silvestrol targets in T-ALL. […]

Row | Compound | phosphorylation of AKT (T308) [1] | ribosomal S6 phosphorylation / S6 kinase activity [1] | sensitivity of murine T-ALL cells (murine T-ALL cells) | KRAS expression (PANC-1; PANC1 cells, 50 nM) | KRAS expression (PANC-1; PANC-1, 20 nM) | block of cap-dependent versus IRES-dependent translation [2] | tumor growth (KOPT-K1 xenografts; 0.5 mg/kg, n=7, p<0.001) | toxicity, death, weight loss (KOPT-K1 xenografts) | pIC50 ([3]; primary human T-ALL samples in vitro, 48 hours) | ACTIN, TUBULIN and GAPDH protein levels (JURKAT and KOPT-K1 cells) | MYB, CDK6, EZH2 and RUNX1/AML1 protein expression (JURKAT and KOPT-K1 cells) | MYC, NOTCH1, BCL2 and CCND3 protein levels (JURKAT and KOPT-K1 cells) | tumor growth (KOPT-K1 xenografts; 0.2 mg/kg, n=8, p<0.001) | pathologic analysis of treated tumors (TUNEL, Ki-67) (KOPT-K1 xenografts; treated KOPT-K1 tumors) | in vitro activity against T-ALL compared with silvestrol ([3]; not shown) | target protein levels compared with silvestrol result (JURKAT and KOPT-K1 cells; 24H)
1 | COC(=O)[C@H]1[C@@H](O)[C@@]2(O)c3c(OC)cc(O[C@@H]4O[C@@H]([C@H](O)CO)CO[C@H]4OC)cc3O[C@@]2(c2ccc(OC)cc2)[C@@H]1c1ccccc1 [silvestrol] | did not lead to phosphorylation of AKT (T308) | does not affect S6 kinase activity | no significant difference in sensitivity | loss of KRAS expression | loss of KRAS expression | preferentially block cap-dependent over IRES-dependent translation | significant delay in tumor growth | no severe toxicity, death, or weight loss | 7.89 to 8.52 | not affected | somewhat less decreased | dramatic loss |  |  |  | 
2 | (±)-CR-31-B | did not lead to phosphorylation of AKT (T308) | does not affect S6 kinase activity |  |  |  | preferentially block cap-dependent over IRES-dependent translation |  | no severe toxicity, death, or weight loss |  |  |  |  | significant delay in tumor growth | diffuse apoptosis by TUNEL and loss of proliferation by Ki-67 | similar | same result was confirmed
